Experimental data as given in the NIST ThermoML archive (doi:10.1021/acs.jced.6b00021).
Several values for one entry are separate records, joined by “and”; a condition that tells them apart may be missing. Equal values may be shown once. ± gives the expanded uncertainty stated by the source.

Details: Liquid; for self diffusion coefficient / electrical conductivity / viscosity: 101.33 kPa; for self diffusion coefficient: NMR spin-echo technique; for mass density: 100 kPa, Vibrating tube method; for electrical conductivity: Alternating current cell with electrodes

CC1COC(=O)O1 (configuration not stated) [4-methyl-1,3-dioxolan-2-one]
Details	mass density [kg/m3]	self diffusion coefficient
251.94 K	–	1.29e-10 m2/s
251.99 K	–	1.25e-10 m2/s and 1.24e-10 m2/s
262.92 K	–	1.95e-10 m2/s and 1.9e-10 m2/s
262.93 K	–	1.96e-10 m2/s and 1.93e-10 m2/s
273.09 K	–	2.76e-10 m2/s and 2.73e-10 m2/s
273.15 K	1226.25 ± 0.61	2.73e-10 m2/s and 2.65e-10 m2/s
278.15 K	1220.9 ± 0.61	–
278.27 K	–	3.12e-10 m2/s
278.28 K	–	3.19e-10 m2/s
278.51 K	–	3.19e-10 m2/s
283.15 K	1215.55 ± 0.61	–
283.25 K	–	3.7e-10 m2/s and 3.63e-10 m2/s
283.27 K	–	3.7e-10 m2/s and 3.68e-10 m2/s
288.26 K	–	4.06e-10 m2/s and 4.1e-10 m2/s and 4.07e-10 m2/s
293.15 K	1204.89 ± 0.61	–
293.21 K	–	4.58e-10 m2/s
293.27 K	–	4.62e-10 m2/s and 4.6e-10 m2/s
298.05 K	–	5.14e-10 m2/s
298.14 K	–	5.02e-10 m2/s and 5.01e-10 m2/s
298.15 K	1199.58 ± 0.61	–
298.19 K	–	5.24e-10 m2/s and 5.21e-10 m2/s
298.21 K	–	5.23e-10 m2/s
298.26 K	–	5.24e-10 m2/s
303.15 K	1194.27 ± 0.61	–
303.18 K	–	5.99e-10 m2/s and 5.89e-10 m2/s
303.19 K	–	5.98e-10 m2/s and 5.86e-10 m2/s
308.21 K	–	6.71e-10 m2/s and 6.58e-10 m2/s
308.27 K	–	6.74e-10 m2/s and 6.54e-10 m2/s
308.78 K	–	6.55e-10 m2/s
308.86 K	–	6.59e-10 m2/s
313.15 K	1183.67 ± 0.61	–
313.39 K	–	7.44e-10 m2/s and 7.43e-10 m2/s
313.41 K	–	7.32e-10 m2/s and 7.46e-10 m2/s
318.26 K	–	8.17e-10 m2/s and 8.06e-10 m2/s
318.4 K	–	8.14e-10 m2/s and 8.18e-10 m2/s
323.15 K	1173.08 ± 0.61	–
323.2 K	–	8.97e-10 m2/s and 9.06e-10 m2/s
323.25 K	–	9.05e-10 m2/s and 8.92e-10 m2/s
323.65 K	–	8.96e-10 m2/s and 8.76e-10 m2/s
323.67 K	–	8.78e-10 m2/s and 8.71e-10 m2/s
333.08 K	–	1.05e-09 m2/s
333.13 K	–	1.04e-09 m2/s
333.15 K	1162.5 ± 0.61	–
342.8 K	–	1.22e-09 m2/s
342.86 K	–	1.18e-09 m2/s
343.15 K	1151.92 ± 0.61	–
352.52 K	–	1.4e-09 m2/s
352.61 K	–	1.42e-09 m2/s
352.68 K	–	1.35e-09 m2/s
353.15 K	1141.33 ± 0.61	–
363.15 K	1130.73 ± 0.61	–

CCn1cc[n+](C)c1.CS(=O)(=O)[O-] [1-ethyl-3-methylimidazolium methanesulfonate]
Details	electrical conductivity	mass density [kg/m3]	self diffusion coefficient [m2/s]
273.15 K	0.0413 ± 0.00083 S/m	–	–
278.15 K	0.0656 ± 0.0013 S/m	1256.19 ± 0.61	–
280.65 K	–	1254.4 ± 0.61	–
283.15 K	0.0988 ± 0.002 S/m	1252.62 ± 0.61	–
285.65 K	–	1250.84 ± 0.61	–
288.15 K	0.142 ± 0.0028 S/m	1249.07 ± 0.61	–
293.15 K	0.197 ± 0.004 S/m	1245.55 ± 0.61	–
294 K	–	–	7.63e-12
296.58 K	–	–	9e-12
296.62 K	–	–	9.07e-12
298.15 K	0.265 S/m and 0.259 S/m	1242.06 ± 0.61	–
298.98 K	–	–	1.02e-11
299.01 K	–	–	1.03e-11
300.65 K	0.298 ± 0.006 S/m	–	–
301.63 K	–	–	1.23e-11
301.77 K	–	–	1.24e-11
303.15 K	0.346 S/m and 0.34 S/m	1238.7 ± 0.61	–
304 K	–	–	1.35e-11
304.01 K	–	–	1.34e-11
305.65 K	0.386 ± 0.0077 S/m	–	–
306.53 K	–	–	1.52e-11
306.58 K	–	–	1.55e-11
308.15 K	0.435 ± 0.0087 S/m	–	–
310.65 K	0.488 ± 0.0098 S/m	–	–
313.15 K	0.553 ± 0.011 S/m	1231.94 ± 0.61	–
313.69 K	–	–	2.21e-11
313.74 K	–	–	2.21e-11
323.15 K	0.821 ± 0.016 S/m	1225.21 ± 0.61	–
323.7 K	–	–	3.42e-11
323.73 K	–	–	3.43e-11
333.15 K	1.15 ± 0.023 S/m	1218.52 ± 0.61	–
333.42 K	–	–	5.06e-11
333.52 K	–	–	5.07e-11
343.15 K	1.55 ± 0.031 S/m	1211.87 ± 0.61	–
343.66 K	–	–	7.13e-11
343.73 K	–	–	7.12e-11
353.15 K	1.99 ± 0.04 S/m	1205.26 ± 0.61	–
353.4 K	–	–	9.71e-11
353.61 K	–	–	9.7e-11
363.15 K	–	1198.74 ± 0.61	–

viscosity
Details	Concentric cylinders viscometry	Falling or rolling sphere viscometry
273.15 K	1250.4 ± 70 mPa·s	–
278.15 K	749.3 ± 39 mPa·s	–
283.15 K	475.8 ± 23 mPa·s	472.2 ± 38 mPa·s and 472.4 ± 38 mPa·s
285.65 K	–	379 ± 28 mPa·s
288.15 K	317.1 ± 15 mPa·s	314.8 ± 22 mPa·s and 315.7 ± 22 mPa·s
293.15 K	219.7 ± 9.7 mPa·s and 220.2 ± 9.7 mPa·s and 220 ± 9.7 mPa·s	218.9 ± 13 mPa·s and 219.3 ± 13 mPa·s
296.15 K	–	181.5 ± 10 mPa·s and 179.5 ± 10 mPa·s and 179.8 ± 10 mPa·s
298.15 K	158.2 ± 6.7 mPa·s	159.8 ± 8.6 mPa·s and 160.6 ± 8.6 mPa·s
300.15 K	–	138.8 ± 7.1 mPa·s [middle of 4 runs]
303.15 K	115.6 ± 4.8 mPa·s	116.3 ± 5.5 mPa·s
305.65 K	–	101.8 ± 4.6 mPa·s and 102 ± 4.7 mPa·s
308.15 K	–	89.34 ± 3.9 mPa·s and 89.37 ± 3.9 mPa·s
313.15 K	66.71 ± 2.7 mPa·s	69.08 ± 2.9 mPa·s and 69.13 ± 2.9 mPa·s and 69.74 ± 2.9 mPa·s
323.15 K	43.42 ± 1.7 mPa·s	44.52 ± 1.8 mPa·s and 44.54 ± 1.8 mPa·s
333.15 K	30.27 ± 1.2 mPa·s	30.49 ± 1.2 mPa·s and 30.68 ± 1.2 mPa·s
343.15 K	22.11 ± 0.89 mPa·s	21.93 ± 0.89 mPa·s and 21.98 ± 0.89 mPa·s
353.15 K	16.66 ± 0.67 mPa·s	16.42 ± 0.67 mPa·s and 16.46 ± 0.67 mPa·s
363.15 K	12.94 ± 0.52 mPa·s	12.73 ± 0.52 mPa·s and 12.81 ± 0.52 mPa·s
